{"source": "paper PMC9954146", "about": "“Anti-Leukaemic Activity of Rilpivirine Is Mediated by Aurora A Kinase Inhibition” (Cancers, 2023)", "assay_in_all_cases": "Kinase panel", "type_in_all_cases": "biochemical", "conditions_in_all_cases": "read-out: % Residual Activity", "key": {"Arg(m)": {"biological_target": "T1, Arg(m) (Mus musculus, UniProt Q4JIM5)", "T1 construct": "purchased Eurofins (KinaseProfiler)", "method_in_brief": "(§1)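 In this kinome-wide profiling of rilpivirine, IC50 values were obtained in radiometric format at the Km concentration of ATP for each kinase, then expressed as Ki using Cheng–Prusoff.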"}, "[1]": {"biological_target": "PI3 Kinase (p110d/p85a)(m) (Mus musculus, UniProt O35904)", "sequence (O35904 whole entry)": "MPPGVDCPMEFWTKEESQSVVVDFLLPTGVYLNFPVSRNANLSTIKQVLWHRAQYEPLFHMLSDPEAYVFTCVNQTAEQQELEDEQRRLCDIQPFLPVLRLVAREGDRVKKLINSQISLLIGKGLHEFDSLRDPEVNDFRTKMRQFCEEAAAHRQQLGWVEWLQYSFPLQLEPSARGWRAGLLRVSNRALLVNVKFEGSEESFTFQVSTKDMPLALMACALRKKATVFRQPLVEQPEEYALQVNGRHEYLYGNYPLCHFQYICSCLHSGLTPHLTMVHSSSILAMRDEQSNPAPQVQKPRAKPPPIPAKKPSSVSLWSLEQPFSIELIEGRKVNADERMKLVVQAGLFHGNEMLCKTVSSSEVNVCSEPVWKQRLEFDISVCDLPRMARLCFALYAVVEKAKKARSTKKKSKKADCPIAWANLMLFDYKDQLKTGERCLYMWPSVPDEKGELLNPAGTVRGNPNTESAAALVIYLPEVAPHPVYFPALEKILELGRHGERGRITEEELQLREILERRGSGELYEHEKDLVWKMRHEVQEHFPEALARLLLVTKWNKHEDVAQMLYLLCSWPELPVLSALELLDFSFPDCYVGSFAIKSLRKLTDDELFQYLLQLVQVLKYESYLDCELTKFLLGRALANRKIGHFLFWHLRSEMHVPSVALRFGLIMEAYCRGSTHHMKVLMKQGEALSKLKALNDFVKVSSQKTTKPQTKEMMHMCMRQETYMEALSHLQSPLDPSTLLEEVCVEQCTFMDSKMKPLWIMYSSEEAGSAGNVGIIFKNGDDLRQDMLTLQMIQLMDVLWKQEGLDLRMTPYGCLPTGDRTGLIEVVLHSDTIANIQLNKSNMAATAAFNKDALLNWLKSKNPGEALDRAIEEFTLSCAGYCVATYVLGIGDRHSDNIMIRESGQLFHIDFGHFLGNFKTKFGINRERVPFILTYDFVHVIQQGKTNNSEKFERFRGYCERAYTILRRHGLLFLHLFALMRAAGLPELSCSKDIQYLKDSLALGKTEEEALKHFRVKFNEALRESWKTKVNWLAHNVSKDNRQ", "sequence (P26450 whole entry partner)": "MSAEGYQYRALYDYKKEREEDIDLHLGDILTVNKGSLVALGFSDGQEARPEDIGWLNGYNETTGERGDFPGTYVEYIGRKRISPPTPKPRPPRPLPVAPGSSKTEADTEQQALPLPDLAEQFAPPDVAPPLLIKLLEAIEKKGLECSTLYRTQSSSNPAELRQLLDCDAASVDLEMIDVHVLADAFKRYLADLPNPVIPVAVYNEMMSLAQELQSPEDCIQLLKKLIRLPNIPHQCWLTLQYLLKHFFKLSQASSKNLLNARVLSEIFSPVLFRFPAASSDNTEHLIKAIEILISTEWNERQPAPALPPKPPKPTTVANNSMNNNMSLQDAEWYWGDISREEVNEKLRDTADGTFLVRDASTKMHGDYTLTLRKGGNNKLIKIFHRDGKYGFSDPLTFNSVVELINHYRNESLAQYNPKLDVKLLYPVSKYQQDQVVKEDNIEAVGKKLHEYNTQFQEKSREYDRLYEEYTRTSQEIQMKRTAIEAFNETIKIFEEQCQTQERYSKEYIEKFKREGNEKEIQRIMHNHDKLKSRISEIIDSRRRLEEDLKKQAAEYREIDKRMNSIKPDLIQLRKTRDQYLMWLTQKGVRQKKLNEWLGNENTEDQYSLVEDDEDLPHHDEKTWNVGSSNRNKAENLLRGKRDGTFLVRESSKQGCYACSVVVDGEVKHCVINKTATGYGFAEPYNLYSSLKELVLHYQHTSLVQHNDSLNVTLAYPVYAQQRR", "method_in_brief": "as §1"}, "CDK16/cyclinY(h)": {"biological_target": "T2, CDK16/cyclinY(h) (Homo sapiens, UniProt Q00536)", "T2 construct": "purchased Eurofins (KinaseProfiler)", "method_in_brief": "as §1"}, "NEK11(h)": {"biological_target": "T3, NEK11(h) (Homo sapiens, UniProt Q8NG66)", "T3 construct": "purchased Eurofins (KinaseProfiler)", "method_in_brief": "as §1"}, "LOK(h)": {"biological_target": "T4, LOK(h) (Homo sapiens, UniProt O94804)", "T4 construct": "purchased Eurofins (KinaseProfiler)", "method_in_brief": "as §1"}, "PEK(h)": {"biological_target": "T5, PEK(h) (Homo sapiens, UniProt Q9NZJ5)", "T5 construct": "purchased Eurofins (KinaseProfiler)", "method_in_brief": "as §1"}, "MELK(h)": {"biological_target": "T6, MELK(h) (Homo sapiens, UniProt Q14680)", "T6 construct": "purchased Eurofins (KinaseProfiler)", "method_in_brief": "as §1"}, "Mnk2(h)": {"biological_target": "T7, Mnk2(h) (Homo sapiens, UniProt Q9HBH9)", "T7 construct": "purchased Eurofins (KinaseProfiler)", "method_in_brief": "as §1"}, "CDK17/cyclinY(h)": {"biological_target": "T8, CDK17/cyclinY(h) (Homo sapiens, UniProt Q00537)", "T8 construct": "purchased Eurofins (KinaseProfiler)", "method_in_brief": "as §1"}, "DYRK1B(h)": {"biological_target": "T9, DYRK1B(h) (Homo sapiens, UniProt Q9Y463)", "T9 construct": "purchased Eurofins (KinaseProfiler)", "method_in_brief": "as §1"}, "EphA7(h)": {"biological_target": "T10, EphA7(h) (Homo sapiens, UniProt Q15375)", "T10 construct": "purchased Eurofins (KinaseProfiler)", "method_in_brief": "as §1"}, "MINK(h)": {"biological_target": "T11, MINK(h) (Homo sapiens, UniProt Q8N4C8)", "T11 construct": "purchased Eurofins (KinaseProfiler)", "method_in_brief": "as §1"}, "CaMKIγ(h)": {"biological_target": "T12, CaMKIγ(h) (Homo sapiens, UniProt Q96NX5)", "T12 construct": "purchased Eurofins (KinaseProfiler)", "method_in_brief": "as §1"}, "STK33(h)": {"biological_target": "T13, STK33(h) (Homo sapiens, UniProt Q9BYT3)", "T13 construct": "purchased Eurofins (KinaseProfiler)", "method_in_brief": "as §1"}, "DNA-PK(h)": {"biological_target": "T14, DNA-PK(h) (Homo sapiens, UniProt P78527)", "T14 construct": "purchased Eurofins (KinaseProfiler)", "method_in_brief": "as §1"}, "TYK2(h)": {"biological_target": "T15, TYK2(h) (Homo sapiens, UniProt P29597)", "T15 construct": "purchased Eurofins (KinaseProfiler)", "method_in_brief": "as §1"}, "PKG1α(h)": {"biological_target": "T16, PKG1α(h) (Homo sapiens, UniProt Q13976)", "T16 construct": "purchased Eurofins (KinaseProfiler)", "method_in_brief": "as §1"}, "MAPKAP-K3(h)": {"biological_target": "T17, MAPKAP-K3(h) (Homo sapiens, UniProt Q16644)", "T17 construct": "purchased Eurofins (KinaseProfiler)", "method_in_brief": "as §1"}, "PAK5(h)": {"biological_target": "T18, PAK5(h) (Homo sapiens, UniProt Q9P286)", "T18 construct": "purchased Eurofins (KinaseProfiler)", "method_in_brief": "as §1"}, "Pim-2(h)": {"biological_target": "T19, Pim-2(h) (Homo sapiens, UniProt Q9P1W9)", "T19 construct": "purchased Eurofins (KinaseProfiler)", "method_in_brief": "as §1"}, "SLK(h)": {"biological_target": "T20, SLK(h) (Homo sapiens, UniProt Q9H2G2)", "T20 construct": "purchased Eurofins (KinaseProfiler)", "method_in_brief": "as §1"}, "LIMK1(h)": {"biological_target": "T21, LIMK1(h) (Homo sapiens, UniProt P53667)", "T21 construct": "purchased Eurofins (KinaseProfiler)", "method_in_brief": "as §1"}, "TLK2(h)": {"biological_target": "T22, TLK2(h) (Homo sapiens, UniProt Q86UE8)", "T22 construct": "purchased Eurofins (KinaseProfiler)", "method_in_brief": "as §1"}, "FAK(h)": {"biological_target": "T23, FAK(h) (Homo sapiens, UniProt Q05397)", "T23 construct": "purchased Eurofins (KinaseProfiler)", "method_in_brief": "as §1"}, "[2]": {"biological_target": "PI3 Kinase (p110a/p65a)(h) (Homo sapiens, UniProt P42336)", "sequence (P42336 whole entry)": "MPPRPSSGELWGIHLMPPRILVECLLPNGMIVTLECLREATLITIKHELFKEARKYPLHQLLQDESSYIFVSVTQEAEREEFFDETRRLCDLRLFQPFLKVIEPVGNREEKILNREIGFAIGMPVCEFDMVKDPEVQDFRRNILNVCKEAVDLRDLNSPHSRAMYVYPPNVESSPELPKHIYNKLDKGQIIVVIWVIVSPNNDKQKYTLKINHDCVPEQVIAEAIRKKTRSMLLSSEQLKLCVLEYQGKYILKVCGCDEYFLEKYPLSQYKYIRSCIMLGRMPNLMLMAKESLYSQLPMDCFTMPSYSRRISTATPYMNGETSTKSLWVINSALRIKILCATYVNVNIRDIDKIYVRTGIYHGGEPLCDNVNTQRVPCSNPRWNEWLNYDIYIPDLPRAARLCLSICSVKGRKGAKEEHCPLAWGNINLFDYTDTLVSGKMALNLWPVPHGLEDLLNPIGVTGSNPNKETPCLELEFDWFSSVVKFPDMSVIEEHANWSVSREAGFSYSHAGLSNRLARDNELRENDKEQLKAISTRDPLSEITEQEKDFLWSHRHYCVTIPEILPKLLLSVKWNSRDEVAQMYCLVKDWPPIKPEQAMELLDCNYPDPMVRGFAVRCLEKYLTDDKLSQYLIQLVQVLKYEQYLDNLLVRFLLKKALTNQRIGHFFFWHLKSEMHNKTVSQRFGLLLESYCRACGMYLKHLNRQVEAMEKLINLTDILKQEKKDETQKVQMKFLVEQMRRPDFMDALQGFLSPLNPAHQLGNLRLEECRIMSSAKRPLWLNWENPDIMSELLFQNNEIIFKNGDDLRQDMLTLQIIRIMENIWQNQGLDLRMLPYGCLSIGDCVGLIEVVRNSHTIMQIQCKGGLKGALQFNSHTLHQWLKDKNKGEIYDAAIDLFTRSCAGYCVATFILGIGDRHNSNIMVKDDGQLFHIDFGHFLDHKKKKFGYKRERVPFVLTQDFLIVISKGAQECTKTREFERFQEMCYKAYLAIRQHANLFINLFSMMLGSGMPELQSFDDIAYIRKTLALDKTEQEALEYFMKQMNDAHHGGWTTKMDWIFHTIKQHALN", "method_in_brief": "as §1"}, "[3]": {"biological_target": "PI3 Kinase (p110a(E542K)/p85a)(m) (Mus musculus, UniProt P42337, E542K)", "method_in_brief": "as §1"}, "CDK4/cyclinD3(h)": {"biological_target": "T24, CDK4/cyclinD3(h) (Homo sapiens, UniProt P11802)", "T24 construct": "purchased Eurofins (KinaseProfiler)", "method_in_brief": "as §1"}, "Rse(h)": {"biological_target": "T25, Rse(h) (Homo sapiens, UniProt Q06418)", "T25 construct": "purchased Eurofins (KinaseProfiler)", "T25 sequence (Q06418 41-890)": "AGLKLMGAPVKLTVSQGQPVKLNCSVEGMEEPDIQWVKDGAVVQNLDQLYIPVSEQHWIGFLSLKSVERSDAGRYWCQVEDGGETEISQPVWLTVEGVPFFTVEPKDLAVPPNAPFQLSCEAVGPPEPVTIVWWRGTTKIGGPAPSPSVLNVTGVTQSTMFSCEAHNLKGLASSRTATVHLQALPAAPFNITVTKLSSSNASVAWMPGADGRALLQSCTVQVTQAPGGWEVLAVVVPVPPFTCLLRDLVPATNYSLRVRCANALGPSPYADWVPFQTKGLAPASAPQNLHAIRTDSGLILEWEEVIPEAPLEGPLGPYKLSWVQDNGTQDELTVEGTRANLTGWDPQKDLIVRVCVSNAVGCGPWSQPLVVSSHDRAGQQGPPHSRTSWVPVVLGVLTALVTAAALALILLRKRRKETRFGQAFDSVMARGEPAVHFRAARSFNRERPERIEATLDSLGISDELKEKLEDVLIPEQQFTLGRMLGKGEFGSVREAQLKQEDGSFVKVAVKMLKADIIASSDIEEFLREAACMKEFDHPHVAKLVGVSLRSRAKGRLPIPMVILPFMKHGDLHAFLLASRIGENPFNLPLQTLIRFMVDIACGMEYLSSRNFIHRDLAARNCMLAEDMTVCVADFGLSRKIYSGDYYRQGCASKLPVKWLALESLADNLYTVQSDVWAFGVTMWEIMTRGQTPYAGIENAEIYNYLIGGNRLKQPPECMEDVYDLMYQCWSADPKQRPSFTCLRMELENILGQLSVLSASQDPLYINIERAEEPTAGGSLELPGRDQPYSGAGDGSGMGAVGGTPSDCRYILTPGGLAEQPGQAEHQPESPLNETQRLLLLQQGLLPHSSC", "method_in_brief": "as §1"}, "MEKK2(h)": {"biological_target": "T26, MEKK2(h) (Homo sapiens, UniProt Q9Y2U5)", "T26 construct": "purchased Eurofins (KinaseProfiler)", "method_in_brief": "as §1"}, "TrkB(h)": {"biological_target": "T27, TrkB(h) (Homo sapiens, UniProt Q16620)", "T27 construct": "purchased Eurofins (KinaseProfiler)", "method_in_brief": "as §1"}, "PASK(h)": {"biological_target": "T28, PASK(h) (Homo sapiens, UniProt Q96RG2)", "T28 construct": "purchased Eurofins (KinaseProfiler)", "method_in_brief": "as §1"}, "SAPK2a(T106M)(h)": {"biological_target": "T29, SAPK2a(T106M)(h) (Homo sapiens, UniProt Q16539, T106M)", "T29 construct": "purchased Eurofins (KinaseProfiler)", "T29 sequence (Q16539 whole entry T106M)": "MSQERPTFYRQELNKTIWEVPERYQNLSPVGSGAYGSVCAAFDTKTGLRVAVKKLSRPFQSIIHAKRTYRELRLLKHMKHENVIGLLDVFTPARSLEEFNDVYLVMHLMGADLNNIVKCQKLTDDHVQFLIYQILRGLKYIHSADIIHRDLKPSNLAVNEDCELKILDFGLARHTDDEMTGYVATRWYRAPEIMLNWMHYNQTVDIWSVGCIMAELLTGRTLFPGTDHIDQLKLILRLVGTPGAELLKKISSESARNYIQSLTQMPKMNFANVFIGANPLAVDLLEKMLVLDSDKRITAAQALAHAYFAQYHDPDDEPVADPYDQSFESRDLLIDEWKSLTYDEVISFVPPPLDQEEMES", "method_in_brief": "as §1"}, "Abl(m)": {"biological_target": "T30, Abl(m) (Mus musculus, UniProt P00520)", "T30 construct": "purchased Eurofins (KinaseProfiler)", "method_in_brief": "as §1"}, "MSK1(h)": {"biological_target": "T31, MSK1(h) (Homo sapiens, UniProt O75582)", "T31 construct": "purchased Eurofins (KinaseProfiler)", "method_in_brief": "as §1"}, "ZAK(h)": {"biological_target": "T32, ZAK(h) (Homo sapiens, UniProt Q9NYL2)", "T32 construct": "purchased Eurofins (KinaseProfiler)", "T32 sequence (Q9NYL2 whole entry)": "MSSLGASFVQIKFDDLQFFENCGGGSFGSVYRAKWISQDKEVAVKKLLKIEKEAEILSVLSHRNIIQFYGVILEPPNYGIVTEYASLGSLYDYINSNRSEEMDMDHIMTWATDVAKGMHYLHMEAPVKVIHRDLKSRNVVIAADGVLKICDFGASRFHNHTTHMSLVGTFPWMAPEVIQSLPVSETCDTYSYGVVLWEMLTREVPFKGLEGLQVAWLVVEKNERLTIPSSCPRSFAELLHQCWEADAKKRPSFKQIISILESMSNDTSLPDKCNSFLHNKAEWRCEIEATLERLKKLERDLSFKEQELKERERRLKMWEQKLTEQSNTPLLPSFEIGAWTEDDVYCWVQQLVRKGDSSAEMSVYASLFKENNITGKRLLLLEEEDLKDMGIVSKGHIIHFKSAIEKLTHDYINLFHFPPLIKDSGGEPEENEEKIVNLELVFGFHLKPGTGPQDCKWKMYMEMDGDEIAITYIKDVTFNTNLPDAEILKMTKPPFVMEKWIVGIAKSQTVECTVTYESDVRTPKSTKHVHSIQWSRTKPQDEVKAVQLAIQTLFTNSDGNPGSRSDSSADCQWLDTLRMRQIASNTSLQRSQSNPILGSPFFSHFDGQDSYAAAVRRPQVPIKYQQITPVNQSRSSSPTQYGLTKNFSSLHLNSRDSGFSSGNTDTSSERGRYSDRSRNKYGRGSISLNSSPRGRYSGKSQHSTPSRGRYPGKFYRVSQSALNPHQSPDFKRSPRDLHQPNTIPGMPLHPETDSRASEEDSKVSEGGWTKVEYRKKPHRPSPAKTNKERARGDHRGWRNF", "method_in_brief": "as §1"}, "HIPK4(h)": {"biological_target": "T33, HIPK4(h) (Homo sapiens, UniProt Q8NE63)", "T33 construct": "purchased Eurofins (KinaseProfiler)", "method_in_brief": "as §1"}, "SIK3(h)": {"biological_target": "T34, SIK3(h) (Homo sapiens, UniProt Q9Y2K2)", "T34 construct": "purchased Eurofins (KinaseProfiler)", "method_in_brief": "as §1"}, "[4]": {"biological_target": "T35, PI3 Kinase (p110b/p85a)(h) (Homo sapiens, UniProt P42338)", "T35 construct": "purchased Eurofins (KinaseProfiler)", "method_in_brief": "as §1"}}}
{"smiles": "Cc1cc(/C=C/C#N)cc(C)c1Nc1ccnc(Nc2ccc(C#N)cc2)n1", "note": "[rilpivirine, (E)-4-((4-((4-(2-cyanoethenyl)-2,6-dimethylphenyl)amino)pyrimidin-2-yl)amino)benzonitrile]", "values": [{"measurement": "remaining activity at 1 µM", "setting": "Arg(m)", "value": 48, "unit": "%"}, {"measurement": "remaining activity at 1 µM", "setting": "[1]", "value": 99, "unit": "%"}, {"measurement": "remaining activity at 1 µM", "setting": "CDK16/cyclinY(h)", "value": 96, "unit": "%"}, {"measurement": "remaining activity at 1 µM", "setting": "NEK11(h)", "value": 92, "unit": "%"}, {"measurement": "remaining activity at 1 µM", "setting": "LOK(h)", "value": 101, "unit": "%"}, {"measurement": "remaining activity at 1 µM", "setting": "PEK(h)", "value": 82, "unit": "%"}, {"measurement": "remaining activity at 1 µM", "setting": "MELK(h)", "value": 56, "unit": "%"}, {"measurement": "remaining activity at 1 µM", "setting": "Mnk2(h)", "value": 85, "unit": "%"}, {"measurement": "remaining activity at 1 µM", "setting": "CDK17/cyclinY(h)", "value": 78, "unit": "%"}, {"measurement": "remaining activity at 1 µM", "setting": "DYRK1B(h)", "value": 72, "unit": "%"}, {"measurement": "remaining activity at 1 µM", "setting": "EphA7(h)", "value": 96, "unit": "%"}, {"measurement": "remaining activity at 1 µM", "setting": "MINK(h)", "value": 80, "unit": "%"}, {"measurement": "remaining activity at 1 µM", "setting": "CaMKIγ(h)", "value": 95, "unit": "%"}, {"measurement": "remaining activity at 1 µM", "setting": "STK33(h)", "value": 102, "unit": "%"}, {"measurement": "remaining activity at 1 µM", "setting": "DNA-PK(h)", "value": 95, "unit": "%"}, {"measurement": "remaining activity at 1 µM", "setting": "TYK2(h)", "value": 52, "unit": "%"}, {"measurement": "remaining activity at 1 µM", "setting": "PKG1α(h)", "value": 88, "unit": "%"}, {"measurement": "remaining activity at 1 µM", "setting": "MAPKAP-K3(h)", "value": 90, "unit": "%"}, {"measurement": "remaining activity at 1 µM", "setting": "PAK5(h)", "value": 91, "unit": "%"}, {"measurement": "remaining activity at 1 µM", "setting": "Pim-2(h)", "value": 56, "unit": "%"}, {"measurement": "remaining activity at 1 µM", "setting": "SLK(h)", "value": 106, "unit": "%"}, {"measurement": "remaining activity at 1 µM", "setting": "LIMK1(h)", "value": 47, "unit": "%"}, {"measurement": "remaining activity at 1 µM", "setting": "TLK2(h)", "value": 115, "unit": "%"}, {"measurement": "remaining activity at 1 µM", "setting": "FAK(h)", "value": 86, "unit": "%"}, {"measurement": "remaining activity at 1 µM", "setting": "[2]", "value": 93, "unit": "%"}, {"measurement": "remaining activity at 1 µM", "setting": "[3]", "value": 101, "unit": "%"}, {"measurement": "remaining activity at 1 µM", "setting": "CDK4/cyclinD3(h)", "value": 101, "unit": "%"}, {"measurement": "remaining activity at 1 µM", "setting": "Rse(h)", "value": 66, "unit": "%"}, {"measurement": "remaining activity at 1 µM", "setting": "MEKK2(h)", "value": 104, "unit": "%"}, {"measurement": "remaining activity at 1 µM", "setting": "TrkB(h)", "value": 72, "unit": "%"}, {"measurement": "remaining activity at 1 µM", "setting": "PASK(h)", "value": 85, "unit": "%"}, {"measurement": "remaining activity at 1 µM", "setting": "SAPK2a(T106M)(h)", "value": 90, "unit": "%"}, {"measurement": "remaining activity at 1 µM", "setting": "Abl(m)", "value": 63, "unit": "%"}, {"measurement": "remaining activity at 1 µM", "setting": "MSK1(h)", "value": 97, "unit": "%"}, {"measurement": "remaining activity at 1 µM", "setting": "ZAK(h)", "value": 99, "unit": "%"}, {"measurement": "remaining activity at 1 µM", "setting": "HIPK4(h)", "value": 87, "unit": "%"}, {"measurement": "remaining activity at 1 µM", "setting": "SIK3(h)", "value": 89, "unit": "%"}, {"measurement": "remaining activity at 1 µM", "setting": "[4]", "value": 104, "unit": "%"}]}
